Strand notation (5' to 3'): a small letter for the sugar, then the base; units joined by * are phosphorothioate-linked, units joined directly phosphodiester-linked; [ ] holds rarer units or linkages, { } end groups; capitals alone tell only the bases. e = 2'-O-(2-methoxyethyl) (MOE); [5mC] = 5-methylcytosine; d = 2'-deoxy (DNA)
Tested on: human PKK mRNA
Assay: Antisense inhibition of human PKK mRNA in HepaRG cells, 5,000 nM (Example 2)
Type: cell-based
Description: Additional antisense oligonucleotides were designed targeting a PKK nucleic acid and were tested for their effects on PKK mRNA in vitro.
The chimeric antisense oligonucleotides in the tables below were designed as 5-10-5 MOE gapmers, 4-9-4 MOE gapmers, 4-10-4 MOE gapmers, 4-10-3 MOE gapmers, 3-10-4 MOE gapmers, or 3-10-3 MOE gapmers. The 5-10-5 MOE gapmers are 20 nucleosides in length, wherein the central gap segment comprises of ten 2′-deoxynucleosides and is flanked by wing segments on the 5′ direction and the 3′ direction comprising five nucleosides each. The 4-9-4 MOE gapmers are 17 nucleosides in length, wherein the central gap segment comprises of nine 2′-deoxynucleosides and is flanked by wing segments on the 5′ direction and the 3′ direction comprising four nucleosides each. The 4-10-4 MOE gapmers are 18 nucleosides in length, wherein the central gap segment comprises of ten 2′-deoxynucleosides and is flanked by wing segments on the 5′ direction and the 3′ direction comprising four nucleosides each. The 4-10-3 MOE gapmers are 17 nucleosides in length, wherein the central gap segment comprises of ten 2′-deoxynucleosides and is flanked by wing segments on the 5′ direction and the 3′ direction comprising four and three nucleosides respectively. The 3-10-4 MOE gapmers are 17 nucleosides in length, wherein the central gap segment comprises often 2′-deoxynucleosides and is flanked by wing segments on the 5′ direction and the 3′ direction comprising three and four nucleosides respectively. The 3-10-3 MOE gapmers are 16 nucleosides in length, wherein the central gap segment comprises of ten 2′-deoxynucleosides and is flanked by wing segments on the 5′ direction and the 3′ direction comprising three nucleosides each. Each nucleoside in the 5′ wing segment and each nucleoside in the 3′ wing segment has a 2′-O-methoxyethyl modification. The internucleoside linkages throughout each gapmer are phosphorothioate linkages. All cytosine residues throughout each gapmer are 5-methylcytosines. “Start site” indicates the 5′-most nucleoside to which the gapmer is targeted in the human gene sequence. “Stop site” indicates the 3′-most nucleoside to which the gapmer is targeted in the human gene sequence.
Cultured HepaRG™ cells at a density of 20,000 cells per well were transfected using electroporation with 5,000 nM antisense oligonucleotide. After a treatment period of approximately 24 hours, RNA was isolated from the cells and PKK mRNA levels were measured by quantitative real-time PCR. Human primer probe set RTS3454 was used to measure mRNA levels. PKK mRNA levels were adjusted according to total RNA content, as measured by RIBOGREEN®. The antisense oligonucleotides were tested in a series of experiments that had similar culture conditions. Results are presented as percent inhibition of PKK, relative to untreated control cells.

[1] = HepaRG cells, electroporation, 5,000 nM antisense oligonucleotide, approx. 24 hours, primer probe set RTS3454, relative to untreated control cells, Table 11
[2] = human PKK mRNA, HepaRG cells, 5-10-5 motif oligonucleotides targeting SEQ ID NO: 1 and 10
[3] = HepaRG cells, 5,000 nM antisense oligonucleotide, 5-10-5 gapmers, Table 17
[4] = HepaRG cells, electroporation with 5,000 nM antisense oligonucleotide, approximately 24 hours, PKK mRNA by RT-PCR (RTS3454), relative to untreated control cells, Table 5 experiment
[5] = HepaRG cells, 5,000 nM antisense oligonucleotide, 5-10-5 gapmers, Table 16
[6] = human PKK mRNA in HepaRG cells, 5-10-5 gapmers, Table 14
[7] = HepaRG cells, electroporation with 5,000 nM antisense oligonucleotide, approximately 24 hours, PKK mRNA by RT-PCR (RTS3454), relative to untreated control cells, Table 6 experiment
[8] = Table 8, HepaRG cells, electroporation with 5,000 nM antisense oligonucleotide, approx. 24 hours, PKK mRNA by RT-PCR (RTS3454), relative to untreated control cells
[9] = HepaRG cells, electroporation, 5,000 nM antisense oligonucleotide, approx. 24 hours, primer probe set RTS3454, relative to untreated control cells, Table 12

Substance: 547492 (antisense e[5mC]*eA*eG*eT*e[5mC]*d[5mC]*dA*dT*dG*dT*dA*d[5mC]*dT*d[5mC]*dA*eG*e[5mC]*eG*eA*e[5mC]) [compound 547492]
- % inhibition [1]: 62%

Substance: 547668 (e[5mC]*eA*eA*e[5mC]*eT*dA*dT*dA*dA*d[5mC]*dA*dG*dT*dA*dT*e[5mC]*eA*e[5mC]*eT*eG; antisense) [compound 547668]
- % inhibition [2]: 44%

Substance: 547772 (antisense e[5mC]*eT*eG*eT*eG*d[5mC]*dT*d[5mC]*d[5mC]*d[5mC]*dG*dG*d[5mC]*d[5mC]*dA*eT*eT*eA*eG*e[5mC]) [compound 547772]
- % inhibition [3]: 0%

Substance: 546231 (e[5mC]*eT*eT*eG*eG*dT*dG*dT*dG*d[5mC]*d[5mC]*dA*d[5mC]*dT*dT*eT*e[5mC]*eA*eG*eA; antisense) [compound 546231]
- % inhibition (Table 7, HepaRG cells, electroporation with 5,000 nM antisense oligonucleotide, approx. 24 hours, PKK mRNA by RT-PCR (RTS3454), relative to untreated control cells): 79%

Substance: 547291 (antisense eA*eT*eG*eG*eA*dA*dG*d[5mC]*dT*dA*d[5mC]*dA*dT*d[5mC]*d[5mC]*e[5mC]*e[5mC]*eA*e[5mC]*e[5mC]) [compound 547291]
- % inhibition [4]: 74%

Substance: 547522 (antisense eG*eA*eA*eA*eG*d[5mC]*dG*dG*dG*d[5mC]*dT*dT*d[5mC]*dA*dG*e[5mC]*e[5mC]*eA*eG*eA) [compound 547522]
- % inhibition [1]: 73%

Substance: 547271 (eT*eT*eA*eA*eA*dA*dA*dT*dG*dA*dA*d[5mC]*dG*dG*dT*e[5mC]*eT*eT*e[5mC]*eA; antisense) [compound 547271]
- % inhibition [4]: 60%

Substance: 546917 (eA*eT*e[5mC]*eA*e[5mC]*dT*dG*dT*d[5mC]*d[5mC]*dT*dA*dT*dA*dA*e[5mC]*eT*eA*eT*eT; antisense) [compound 546917]
- % inhibition [5]: 63%

Substance: 547595 (antisense eA*e[5mC]*eT*eA*eG*dT*dT*dT*d[5mC]*d[5mC]*dT*dA*dT*dA*dA*e[5mC]*eT*eA*eT*eA) [compound 547595]
- % inhibition [6]: 21%

Substance: 546213 (antisense e[5mC]*e[5mC]*e[5mC]*eT*eG*dG*d[5mC]*dA*dA*d[5mC]*dA*dT*d[5mC]*d[5mC]*dA*e[5mC]*eA*eT*e[5mC]*eT) [compound 546213]
- % inhibition [7]: 82%

Substance: 547634 (antisense eA*eT*e[5mC]*eA*e[5mC]*dT*dG*dT*dA*d[5mC]*dT*dA*dG*dT*dT*eT*eT*e[5mC]*eT*eA) [compound 547634]
- % inhibition [2]: 72%

Substance: 547729 (eG*eT*eG*eA*eG*dA*dT*dT*dG*dG*dT*dG*dG*dT*dG*eG*eG*eT*eG*eG; antisense) [compound 547729]
- % inhibition [3]: 45%

Substance: 546280 (e[5mC]*e[5mC]*eA*eG*eA*dG*d[5mC]*dT*d[5mC]*d[5mC]*d[5mC]*dT*dT*dG*dT*eG*eT*e[5mC]*e[5mC]*e[5mC]; antisense) [compound 546280]
- % inhibition [8]: 86%

Substance: 547635 (eT*eA*eT*e[5mC]*eA*d[5mC]*dT*dG*dT*dA*d[5mC]*dT*dA*dG*dT*eT*eT*eT*e[5mC]*eT; antisense) [compound 547635]
- % inhibition [2]: 53%

Substance: 547596 (antisense eT*eA*e[5mC]*eT*eA*dG*dT*dT*dT*d[5mC]*d[5mC]*dT*dA*dT*dA*eA*e[5mC]*eT*eA*eT) [compound 547596]
- % inhibition [6]: 14%

Substance: 547620 (antisense eT*eT*e[5mC]*e[5mC]*eT*dA*dT*dA*dA*d[5mC]*dA*dG*dT*dA*dT*e[5mC]*eA*e[5mC]*eT*eG) [compound 547620]
- % inhibition [6]: 65%

Substance: 547345 (antisense eA*eG*eA*e[5mC]*eA*d[5mC]*dA*dT*dT*dA*dA*dA*dA*dT*dT*eG*eA*e[5mC]*eT*e[5mC]) [compound 547345]
- % inhibition [7]: 80%

Substance: 547428 (eT*e[5mC]*eA*eA*eA*dG*dA*dG*dT*dA*dA*d[5mC]*d[5mC]*dA*dG*eA*eG*e[5mC]*eT*e[5mC]; antisense) [compound 547428]
- % inhibition [8]: 78%

Substance: 546411 (eA*eT*eA*eT*eT*dG*dA*d[5mC]*dT*dT*dT*dG*dG*dG*dT*eT*eT*e[5mC]*eT*eG; antisense) [compound 546411]
- % inhibition [9]: 56%

Substance: 546935 (e[5mC]*eG*eT*eG*eG*dT*dT*dA*dG*d[5mC]*d[5mC]*dT*dG*dA*d[5mC]*eA*eT*e[5mC]*eT*e[5mC]; antisense) [compound 546935]
- % inhibition [5]: 86%

Substance: 546830 (eT*eA*eA*e[5mC]*eA*dG*dT*dA*dT*d[5mC]*dA*d[5mC]*dT*dG*dT*eA*e[5mC]*eT*eA*eG; antisense) [compound 546830]
- % inhibition (Table 13, human PKK mRNA in HepaRG cells, 5-10-5 gapmers): 78%

Substance: 547496 (antisense eA*eT*eG*e[5mC]*eT*dG*dG*dT*dG*dA*d[5mC]*dT*dG*d[5mC]*dA*eT*e[5mC]*eT*eG*eA) [compound 547496]
- % inhibition [1]: 80%

Substance: 547008 (eT*eT*eG*eG*eT*dG*dG*dT*dG*dG*dG*dA*dT*dT*dG*eG*eT*eG*eG*eT; antisense) [compound 547008]
- % inhibition [3]: 81%

Substance: 547551 (antisense eT*e[5mC]*e[5mC]*e[5mC]*e[5mC]*dA*dT*dG*d[5mC]*dA*dT*dA*d[5mC]*dT*d[5mC]*eG*e[5mC]*e[5mC]*eT*eT) [compound 547551]
- % inhibition [9]: 38%

Substance: 547762 (antisense eT*eG*eA*eA*eA*d[5mC]*dT*dG*dG*dG*d[5mC]*dA*dG*dT*d[5mC]*e[5mC]*eT*eT*e[5mC]*e[5mC]) [compound 547762]
- % inhibition [3]: 0%

Substance: 548737 (DNA eA*e[5mC]*eT*eA*dG*dT*dT*dT*d[5mC]*d[5mC]*dT*dA*dT*eA*eA*e[5mC]*eT; antisense) [compound 548737]
- % inhibition (human PKK mRNA, HepaRG cells, 5,000 nM antisense oligonucleotide, Table 18): 11%

Substance: 547534 (antisense eA*eT*e[5mC]*eT*eG*dA*d[5mC]*dT*dA*dG*dT*dG*dA*dA*dT*eG*eG*e[5mC]*eT*eT) [compound 547534]
- % inhibition [9]: 72%

Substance: 547778 (antisense eT*e[5mC]*eA*e[5mC]*e[5mC]*dT*dG*dT*dG*dA*dG*dT*dA*dA*d[5mC]*e[5mC]*eA*eA*eT*eA) [compound 547778]
- % inhibition [3]: 53%

Substance: 546394 (eG*eT*e[5mC]*eA*eT*dG*dG*dA*dG*dA*dT*d[5mC]*dT*d[5mC]*dA*eG*eT*eT*eG*e[5mC]; antisense) [compound 546394]
- % inhibition [1]: 71%

Substance: 546909 (eA*eA*e[5mC]*eA*eA*dT*dA*dT*d[5mC]*dA*d[5mC]*dT*dG*dT*dA*e[5mC]*e[5mC]*eT*eT*eT; antisense) [compound 546909]
- % inhibition [2]: 44%

Substance: 546276 (eT*eG*eG*eA*eG*dA*dA*d[5mC]*d[5mC]*dA*dT*d[5mC]*d[5mC]*dA*dT*eA*eG*eA*eT*eA; antisense) [compound 546276]
- % inhibition [8]: 74%

Substance: 547363 (eG*eG*e[5mC]*eA*eA*d[5mC]*dA*dT*d[5mC]*d[5mC]*dA*d[5mC]*dA*dT*d[5mC]*eT*eG*eA*eG*eA; antisense) [compound 547363]
- % inhibition [7]: 84%
